Among the test systems are A498; ACHN; CCRF-CEM; COLO 205; DU-145; HCT-15; HOP-62; Hs-578T; K562; KM12; M14; MDA-MB-231; MDA-N; NCI-H226; NCI-H460; OVCAR-5; SF-268; T47D; TK-10; UACC-62.
What all share (experiment): NCI anticancer screen, dose series, 48 h

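Following 48 hours of exposure in 96-well plates, responses at five concentrations were used to interpolate endpoints linearly. GI50 = concentration required for 50% inhibition of growth.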 Active and inactive are the calls of the source. Rule as the data show it: active = GI50 up to about 1.1 µM and inactive = higher.

Turning to `Cc1c(CNc2ccc(Cl)c(Cl)c2Cl)cnc2nc(N)nc(N)c12`, the GI50 with A498 is > 100 µM (inactive); in the assay on ACHN it was 0.3 µM (active); in the assay on CCRF-CEM, 0.125 µM (active); in the assay with COLO 205 it was 5.35 µM (inactive); in the assay on DU-145, 0.294 µM (active); in the assay on HCT-15, 0.184 µM. For the same compound, the GI50 in the assay on HOP-62 was 1.04 µM (active); in the assay on Hs-578T it was 17.8 µM (inactive); in the assay on K562, < 0.0132 µM (active); with KM12, 4.99 µM (inactive); in the assay with M14 it was 0.942 µM (active); in the assay with MDA-MB-231, 0.891 µM (active). Further, the GI50 is 0.0515 µM (active) in the assay with MDA-N; 19.5 µM (inactive) in the assay with NCI-H226; 0.0615 µM (active) in the assay with NCI-H460; 11 µM (inactive) in the assay on OVCAR-5; 0.404 µM (active) in the assay on SF-268; 4.24 µM (inactive) with T47D. The GI50 with TK-10 is 14.1 µM (inactive); with UACC-62, 0.0771 µM (active).
In the case of `CCOC(=O)/C=C(\C(=O)OCC)n1cc(C)c(=O)n(Cc2cnnn2COCCOC(C)=O)c1=O`, the GI50 in the assay with A498 was 20.8 µM (inactive); in the assay on ACHN, 2.67 µM (inactive); in the assay on CCRF-CEM, 1.75 µM (inactive); in the assay with COLO 205, 2.07 µM (inactive); in the assay with DU-145, 21.2 µM (inactive); in the assay with HCT-15, 3.44 µM. The GI50 was 22.2 µM (inactive) in the assay with HOP-62; 14.3 µM (inactive) in the assay on Hs-578T; 3.4 µM (inactive) with K562; 16.4 µM (inactive) with KM12; 20.7 µM (inactive) in the assay on M14; 19.8 µM (inactive) in the assay on MDA-MB-231. The GI50 with MDA-N is 19.9 µM (inactive); in the assay on NCI-H226, 9.59 µM (inactive); in the assay on NCI-H460 it was 11.9 µM (inactive); in the assay on OVCAR-5 it was 17.1 µM (inactive); with SF-268 it was 15.5 µM (inactive); with T47D it was 5.78 µM (inactive). The GI50 was 4.91 µM (inactive) in the assay on TK-10 and 15.4 µM (inactive) with UACC-62.
In the case of `CCOC(=O)c1nc2cc(C(F)(F)F)ccc2nc1Nc1cc(OC)c(OC)c(OC)c1`, the GI50 is > 100 µM (inactive) in the assay with A498; > 100 µM (inactive) in the assay on ACHN; > 100 µM (inactive) in the assay on CCRF-CEM; > 100 µM (inactive) with COLO 205; > 100 µM (inactive) in the assay with DU-145; above 100 µM in the assay on HCT-15. The GI50 in the assay with HOP-62, with Hs-578T, in the assay with K562, in the assay with KM12, in the assay on M14 and in the assay on MDA-MB-231 was > 100 µM (inactive) each time. Further, the GI50 with MDA-N, in the assay with NCI-H226, in the assay with NCI-H460, with OVCAR-5, in the assay with SF-268 and with T47D was > 100 µM (inactive) throughout. Moreover, the GI50 in the assay on TK-10 and in the assay on UACC-62 was > 100 µM (inactive) in each case.
Turning to `COc1ccc(/C=C(\C(=O)OCC(C)C)c2ccc(OC)c(OC)c2)cc1OC`, the GI50 with A498 was > 100 µM (inactive); in the assay on ACHN, > 100 µM (inactive); in the assay on CCRF-CEM, > 100 µM (inactive); in the assay with COLO 205 it was 38.4 µM (inactive); in the assay with DU-145, > 100 µM (inactive); with HCT-15 it was above 100 µM. For the same compound, the GI50 with HOP-62 was 74 µM (inactive); in the assay with Hs-578T it was > 100 µM (inactive); with K562, > 100 µM (inactive); in the assay on KM12, > 10 µM (inactive); with M14, 32.5 µM (inactive); in the assay with MDA-MB-231 it was 31 µM (inactive). Also, the GI50 with MDA-N, with NCI-H226, in the assay with NCI-H460, with OVCAR-5, with SF-268 and in the assay on T47D was > 100 µM (inactive) throughout. The GI50 in the assay on TK-10 and in the assay on UACC-62 was > 100 µM (inactive) each time.
With `O=c1/c(=C/c2ccc([N+](=O)[O-])o2)sc2n1[C@@H](c1ccc(Cl)cc1)C=C(c1cc(F)c(Cl)cc1Cl)N=2`, the GI50 in the assay on A498 was 30.7 µM (inactive); in the assay with ACHN, 16.3 µM (inactive); in the assay on CCRF-CEM, 4.83 µM (inactive); in the assay with COLO 205 it was 3.94 µM (inactive); with DU-145, 17.7 µM (inactive); with HCT-15 it was 8.18 µM. For the same compound, the GI50 in the assay with HOP-62 was 11.5 µM (inactive); in the assay with Hs-578T it was 56.5 µM (inactive); in the assay on K562, 13.2 µM (inactive); in the assay with KM12, 24.5 µM (inactive); with M14, 14.6 µM (inactive); with MDA-MB-231, 5.07 µM (inactive). For the same compound, the GI50 in the assay with MDA-N is 4.65 µM (inactive); with NCI-H226, 15.8 µM (inactive); with NCI-H460, 10 µM (inactive); with OVCAR-5, 16.3 µM (inactive); in the assay with SF-268, 13.8 µM (inactive); in the assay with T47D, 19 µM (inactive). For the same compound, the results for the GI50 with TK-10 and with UACC-62 were 16.1 µM (inactive) and 14.8 µM (inactive), respectively.
For `COc1ccc(/C=C(\Cl)c2ccc(OC)c(OC)c2)cc1OC`, the GI50 is > 43.5 µM (inactive) in the assay with A498; > 100 µM (inactive) in the assay on ACHN; > 100 µM (inactive) with CCRF-CEM; > 100 µM (inactive) with COLO 205; > 100 µM (inactive) in the assay with DU-145; above 100 µM with HCT-15. For the same compound, the GI50 was > 82.8 µM (inactive) with HOP-62; > 100 µM (inactive) with Hs-578T; > 100 µM (inactive) in the assay on K562; > 100 µM (inactive) in the assay on KM12; > 100 µM (inactive) in the assay on M14; > 100 µM (inactive) in the assay with MDA-MB-231. Moreover, the GI50 in the assay with MDA-N, in the assay with NCI-H226, in the assay with NCI-H460, in the assay with OVCAR-5, in the assay with SF-268 and in the assay on T47D was > 100 µM (inactive) in each case. Besides, the GI50 with TK-10 and in the assay on UACC-62 was > 100 µM (inactive) throughout.
On to `O=C(CCCc1cccc2[nH]c3c(c12)CN(Cc1ccccc1)CC3)c1ccc(F)cc1`, for which the GI50 in the assay with A498 is > 100 µM (inactive); in the assay with ACHN it was > 100 µM (inactive); in the assay on CCRF-CEM, 30.4 µM (inactive); in the assay with COLO 205, 14.4 µM (inactive); with DU-145, > 100 µM (inactive); in the assay with HCT-15 it was 40.3 µM. Further, the GI50 with HOP-62 is > 37.4 µM (inactive); in the assay on Hs-578T it was 99.5 µM (inactive); in the assay on K562, 7.01 µM (inactive); with KM12 it was 39.1 µM (inactive); with M14, 42 µM (inactive); in the assay with MDA-MB-231, > 40.7 µM (inactive). Moreover, the GI50 with MDA-N is 97.5 µM (inactive); in the assay with NCI-H226 it was > 95.3 µM (inactive); in the assay on NCI-H460 it was 31.5 µM (inactive); with OVCAR-5, > 48.1 µM (inactive); in the assay with SF-268 it was > 100 µM (inactive); in the assay on T47D it was 15.6 µM (inactive). The GI50 in the assay on TK-10 is > 100 µM (inactive); in the assay on UACC-62, 49.1 µM (inactive).

These data come from ChEMBL document CHEMBL1201862, “PubChem BioAssay data set” (2004).
